# Tested on: adult subjects with relapsing MS
# Assay: Treatment-emergent adverse events (Safety Set);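 further: safety Set comprises every randomized subject given one or more doses, analysed by the treatment actually received rather than the assigned arm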
# Format: in vivo, human
# Settings: for AESI effect on heart rate and rhythm (including hypotension) on Day 1: subjects with at least one AE, %: Day 1 (ponesimod dose 2 mg); for TEAE ALT increased, subjects / TEAE headache, subjects / TEAE nasopharyngitis, subjects / TEAE upper respiratory tract infection, subjects: ponesimod 20 mg, teriflunomide 14 mg; for AESI category Effect on heart rate and rhythm (including aypotension), % / AESI category Hepatobiliary disorders/Liver enzyme abnormality, % / AESI category Herpetic infection, % / AESI category Hypertension, % / AESI category Macular edema, % / AESI category Non-skin malignancy, % / AESI category Pulmonary events, % / AESI category Seizure, % / AESI category Skin malignancy, % / AESI category Infection, %: treatment-emergent AESI; for AESI category Infection, %: only if reported as serious or severe
# [1] = Safety Set, listed as ponesimod
# [2] = treatment-emergent, Safety Set, listed as ponesimod
# [3] = Safety Set, listed as teriflunomide
# [4] = treatment-emergent, Safety Set, listed as teriflunomide
# Method: The Safety Set (SAF) included all randomized subjects who received at least one dose of study treatment. Subjects were analyzed based on actual treatment taken, not randomized treatment.
smiles,measurement,setting,value
"CCC/N=C1\S/C(=C\c2ccc(OC[C@H](O)CO)c(Cl)c2)C(=O)N1c1ccccc1C [Ponesimod, (R)-5-[3-chloro-4-(2,3-dihydroxy-propoxy)-benz[Z]ylidene]-2-([Z]-propylimino)-3-o-tolyl-thiazolidin-4-one]","AESI effect on heart rate and rhythm (including hypotension) on Day 1: subjects with at least one AE, %",Safety Set,(2.1) %
same,"AESI effect on heart rate and rhythm (including hypotension) on Day 1: subjects with at least one AE, %",[1],2.1%
same,"Day 1 AESI PT Atrioventricular block first degree, %","Day 1, Safety Set",(0.5) %
same,"Day 1 AESI PT Bradycardia, %","Day 1, Safety Set",(0.7) %
same,"Day 1 AESI PT Bundle branch block left, %","Day 1, Safety Set",(0.2) %
same,"Day 1 AESI PT Bundle branch block right, %","Day 1, Safety Set",(0.2) %
same,"Day 1 AESI PT Defect conduction intraventricular, %","Day 1, Safety Set",(0.4) %
same,"Day 1 AESI PT Sinus arrhythmia, %","Day 1, Safety Set",(0.2) %
same,"Day 1 AESI PT Sinus bradycardia, %","Day 1, Safety Set",(0.2) %
same,"TEAE ALT increased, subjects",,19.5%
same,"TEAE headache, subjects",,11.5%
same,"TEAE nasopharyngitis, subjects",,19.3%
same,"TEAE upper respiratory tract infection, subjects",,10.6%
same,"AESI category Effect on heart rate and rhythm (including aypotension), %",Safety Set,(5.1) %
same,"AESI category Hepatobiliary disorders/Liver enzyme abnormality, %",Safety Set,(25.7) %
same,"AESI category Herpetic infection, %",Safety Set,(4.8) %
same,"AESI category Hypertension, %",Safety Set,(10.1) %
same,"AESI category Macular edema, %",Safety Set,(1.1) %
same,"AESI category Non-skin malignancy, %",Safety Set,(0.2) %
same,"AESI category Pulmonary events, %",Safety Set,(8.0) %
same,"AESI category Seizure, %",Safety Set,(1.4) %
same,"AESI category Skin malignancy, %",Safety Set,(0.9) %
same,"AESI category Hepatobiliary disorders/Liver enzyme abnormality, %",[1],25.7%
same,"AESI category Hypertension, %",[1],10.1%
same,"AESI category Pulmonary events, %",[1],8.0%
same,"AESI category Infection, %",Safety Set,(1.6) %
same,"AEs leading to premature discontinuation, SOC Blood and lymphatic system disorders, %","treatment-emergent, Safety Set",(0.5) %
same,"AEs leading to premature discontinuation, SOC Cardiac disorders, %","treatment-emergent, Safety Set",(0.2) %
same,"AEs leading to premature discontinuation, SOC Eye disorders, %","treatment-emergent, Safety Set",(0.9) %
same,"AEs leading to premature discontinuation, SOC Gastrointestinal disorders, %","treatment-emergent, Safety Set",(0.7) %
same,"AEs leading to premature discontinuation, SOC General disorders and administration site conditions, %","treatment-emergent, Safety Set",(0.5) %
same,"AEs leading to premature discontinuation, SOC Hepatobiliary disorders, %","treatment-emergent, Safety Set",(0.5) %
same,"AEs leading to premature discontinuation, SOC Investigations, %","treatment-emergent, Safety Set",(2.1) %
same,"AEs leading to premature discontinuation, SOC Musculoskeletal and connective tissue disorders, %","treatment-emergent, Safety Set",(0.2) %
same,"AEs leading to premature discontinuation, SOC Neoplasms benign, malignant and unspecified (incl cysts and polyps), %","treatment-emergent, Safety Set",(0.2) %
same,"AEs leading to premature discontinuation, SOC Nervous system disorders, %","treatment-emergent, Safety Set",(0.4) %
same,"AEs leading to premature discontinuation, SOC Pregnancy, puerperium and perinatal conditions, %","treatment-emergent, Safety Set",(0.5) %
same,"AEs leading to premature discontinuation, SOC Psychiatric disorders, %","treatment-emergent, Safety Set",(0.2) %
same,"AEs leading to premature discontinuation, SOC Respiratory, thoracic and mediastinal disorders, %","treatment-emergent, Safety Set",(1.2) %
same,"AEs leading to premature discontinuation, SOC Skin and subcutaneous tissue disorders, %","treatment-emergent, Safety Set",(0.2) %
same,"AEs leading to premature discontinuation, SOC Social circumstances, %","treatment-emergent, Safety Set",(0.4) %
same,"AEs leading to premature discontinuation, SOC Vascular disorders, %","treatment-emergent, Safety Set",(0.5) %
same,"Subjects with at least one AE leading to study drug discontinuation, %","treatment-emergent, Safety Set",(8.7) %
same,"Subjects with at least one AE, %","treatment-emergent, Safety Set",(88.8) %
same,"Subjects with at least one Drug-Related AE, %","treatment-emergent, Safety Set",(49.2) %
same,"Subjects with at least one Serious AE, %","treatment-emergent, Safety Set",(8.7) %
same,"Subjects with at least one Severe AE, %","treatment-emergent, Safety Set",(6.9) %
same,"Subjects with at least one AE leading to study drug discontinuation, %",[2],8.7%
same,"Subjects with at least one AE, %",[2],88.8%
same,"Subjects with at least one Serious AE, %",[2],8.7%
"C/C(O)=C(\C#N)C(=O)Nc1ccc(C(F)(F)F)cc1 [Teriflunomide, reference compound]","AESI effect on heart rate and rhythm (including hypotension) on Day 1: subjects with at least one AE, %",Safety Set,(0.4) %
same,"AESI effect on heart rate and rhythm (including hypotension) on Day 1: subjects with at least one AE, %",[3],0.4%
same,"Day 1 AESI PT Electrocardiogram QT prolonged, %","Day 1, Safety Set",(0.2) %
same,"Day 1 AESI PT Presyncope, %","Day 1, Safety Set",(0.2) %
same,"TEAE ALT increased, subjects",,9.4%
same,"TEAE headache, subjects",,12.7%
same,"TEAE nasopharyngitis, subjects",,16.8%
same,"TEAE upper respiratory tract infection, subjects",,10.4%
same,"AESI category Effect on heart rate and rhythm (including aypotension), %",Safety Set,(4.2) %
same,"AESI category Hepatobiliary disorders/Liver enzyme abnormality, %",Safety Set,(14.5) %
same,"AESI category Herpetic infection, %",Safety Set,(4.8) %
same,"AESI category Hypertension, %",Safety Set,(9.0) %
same,"AESI category Macular edema, %",Safety Set,(0.2) %
same,"AESI category Non-skin malignancy, %",Safety Set,(0.2) %
same,"AESI category Pulmonary events, %",Safety Set,(2.7) %
same,"AESI category Seizure, %",Safety Set,(0.2) %
same,"AESI category Skin malignancy, %",Safety Set,(0.2) %
same,"AESI category Hepatobiliary disorders/Liver enzyme abnormality, %",[3],14.5%
same,"AESI category Hypertension, %",[3],9.0%
same,"AESI category Pulmonary events, %",[3],2.7%
same,"AESI category Infection, %",Safety Set,(0.9) %
same,"AEs leading to premature discontinuation, SOC Blood and lymphatic system disorders, %","treatment-emergent, Safety Set",(0.4) %
same,"AEs leading to premature discontinuation, SOC Cardiac disorders, %","treatment-emergent, Safety Set",(0.4) %
same,"AEs leading to premature discontinuation, SOC Gastrointestinal disorders, %","treatment-emergent, Safety Set",(0.7) %
same,"AEs leading to premature discontinuation, SOC General disorders and administration site conditions, %","treatment-emergent, Safety Set",(0.4) %
same,"AEs leading to premature discontinuation, SOC Hepatobiliary disorders, %","treatment-emergent, Safety Set",(0.4) %
same,"AEs leading to premature discontinuation, SOC Investigations, %","treatment-emergent, Safety Set",(1.8) %
same,"AEs leading to premature discontinuation, SOC Musculoskeletal and connective tissue disorders, %","treatment-emergent, Safety Set",(0.2) %
same,"AEs leading to premature discontinuation, SOC Neoplasms benign, malignant and unspecified (incl cysts and polyps), %","treatment-emergent, Safety Set",(0.2) %
same,"AEs leading to premature discontinuation, SOC Nervous system disorders, %","treatment-emergent, Safety Set",(0.7) %
same,"AEs leading to premature discontinuation, SOC Pregnancy, puerperium and perinatal conditions, %","treatment-emergent, Safety Set",(0.5) %
same,"AEs leading to premature discontinuation, SOC Psychiatric disorders, %","treatment-emergent, Safety Set",(0.2) %
same,"AEs leading to premature discontinuation, SOC Reproductive system and breast disorders, %","treatment-emergent, Safety Set",(0.2) %
same,"AEs leading to premature discontinuation, SOC Skin and subcutaneous tissue disorders, %","treatment-emergent, Safety Set",(0.4) %
same,"AEs leading to premature discontinuation, SOC Social circumstances, %","treatment-emergent, Safety Set",(0.2) %
same,"AEs leading to premature discontinuation, SOC Surgical and medical procedures, %","treatment-emergent, Safety Set",(0.2) %
same,"Subjects with at least one AE leading to study drug discontinuation, %","treatment-emergent, Safety Set",(6.0) %
same,"Subjects with at least one AE, %","treatment-emergent, Safety Set",(88.2) %
same,"Subjects with at least one Drug-Related AE, %","treatment-emergent, Safety Set",(42.0) %
same,"Subjects with at least one Fatal AE, %","treatment-emergent, Safety Set",(0.4) %
same,"Subjects with at least one Serious AE, %","treatment-emergent, Safety Set",(8.1) %
same,"Subjects with at least one Severe AE, %","treatment-emergent, Safety Set",(4.6) %
same,"Subjects with at least one AE leading to study drug discontinuation, %",[4],6.0%
same,"Subjects with at least one AE, %",[4],88.2%
same,"Subjects with at least one Serious AE, %",[4],8.1%
